Measured values reported in the supplement of paper PMC10307832.

What was measured:
Experiment in all cases: relative viability (nuclei count vs DMSO), 5 days (fraction); higher = more cells survive
Selisistat + Foretinib = compound: C1CC(C2=C(C1)C3=C(N2)C=CC(=C3)Cl)C(=O)N [Selisistat] + COc1cc2c(Oc3ccc(NC(=O)C4(C(=O)Nc5ccc(F)cc5)CC4)cc3F)ccnc2cc1OCCCN1CCOCC1 [Foretinib] (partner 0.25 µM)
How it was run: (§1)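 Dosing by pin tool came one day after lung cancer cell lines were seeded in 1536-well plates, using either one drug or a fixed anchor-drug dose plus five library-drug doses (not always all listed) in √10 steps. After 5 days, nuclei were counted on 4× images. Relative viability is treated-well nuclei count divided by vehicle-well nuclei count, and values are medians of duplicate plates.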

Serdemetan + OSI-027 = compound: c1ccc2c(CCNc3ccc(Nc4ccncc4)cc3)c[nH]c2c1 [Serdemetan] + COc1cccc2cc(-c3nc([C@H]4CC[C@H](C(=O)O)CC4)n4ncnc(N)c34)[nH]c12 [OSI-027] (partner 0.5 µM)
How it was run: as §1

Serdemetan + Lapatinib = compound: c1ccc2c(CCNc3ccc(Nc4ccncc4)cc3)c[nH]c2c1 [Serdemetan] + CS(=O)(=O)CCNCc1ccc(-c2ccc3ncnc(Nc4ccc(OCc5cccc(F)c5)c(Cl)c4)c3c2)o1 [Lapatinib] (partner 2 µM)
How it was run: as §1

Serdemetan + Pemetrexed = compound: c1ccc2c(CCNc3ccc(Nc4ccncc4)cc3)c[nH]c2c1 [Serdemetan] + Nc1nc2[nH]cc(CCc3ccc(C(=O)N[C@@H](CCC(=O)O)C(=O)O)cc3)c2c(=O)[nH]1 [Pemetrexed] (partner 0.2 µM)
How it was run: as §1

Cell Line | relative viability (Selisistat + Foretinib; first compound 0.4 µM) | relative viability (Selisistat + Foretinib; first compound 1.265 µM) | relative viability (Selisistat + Foretinib; first compound 4 µM) | relative viability (Selisistat + Foretinib; first compound 12.65 µM) | relative viability (Selisistat + Foretinib; first compound 40 µM) | relative viability (Serdemetan + OSI-027; first compound 0.04 µM) | relative viability (Serdemetan + OSI-027; first compound 0.1265 µM) | relative viability (Serdemetan + OSI-027; first compound 0.4 µM) | relative viability (Serdemetan + OSI-027; first compound 4 µM) | relative viability (Serdemetan + Lapatinib; first compound 0.04 µM) | relative viability (Serdemetan + Lapatinib; first compound 0.1265 µM) | relative viability (Serdemetan + Lapatinib; first compound 0.4 µM) | relative viability (Serdemetan + Lapatinib; first compound 1.265 µM) | relative viability (Serdemetan + Lapatinib; first compound 4 µM) | relative viability (Serdemetan + Pemetrexed; first compound 0.04 µM) | relative viability (Serdemetan + Pemetrexed; first compound 0.1265 µM) | relative viability (Serdemetan + Pemetrexed; first compound 0.4 µM) | relative viability (Serdemetan + Pemetrexed; first compound 1.265 µM) | relative viability (Serdemetan + Pemetrexed; first compound 4 µM) | relative viability (Serdemetan + OSI-027; first compound 1.265 µM)
201T | 1.06 | 1.03 | 0.997 | 0.986 | 1.11 | 0.584 | 0.676 | 0.76 | 0.664 | 0.976 | 0.943 | 1.04 | 0.937 | 0.94 | 0.306 | 0.287 | 0.29 | 0.332 | 0.353 | 
A549 | 1.04 | 0.826 | 0.945 | 0.917 | 0.985 |  |  |  |  | 1.06 | 0.916 | 0.901 | 0.953 | 0.455 |  |  |  |  |  | 
A-427 | 1.02 | 0.976 | 1.02 | 1.12 | 0.984 | 0.526 | 0.509 | 0.539 | 0.36 | 0.996 | 0.987 | 1.1 | 1.02 | 0.749 | 0.958 | 0.927 | 1.04 | 0.698 | 0.854 | 0.455
ABC-1 | 0.927 | 1.04 | 0.929 | 1.08 | 1.16 | 0.459 | 0.488 | 0.486 | 0.265 | 1.08 | 1.07 | 1.25 |  | 0.717 |  |  |  |  |  | 0.296
BEN | 0.575 | 0.553 | 0.373 | 0.558 | 0.468 | 0.307 | 0.292 | 0.272 | 0.286 | 0.623 | 0.704 | 0.592 | 0.359 | 0.556 | 0.717 | 0.614 | 0.849 | 0.955 | 0.634 | 
CAL-12T | 1.12 | 1 | 1 | 1.03 | 1.03 | 0.827 | 0.638 | 0.653 | 0.518 |  | 0.859 |  | 0.599 | 0.579 | 1.17 | 1.19 | 0.951 | 1.19 | 1.05 | 0.579
COR-L23 | 1.08 | 0.981 | 1.04 | 1.03 | 0.996 | 0.796 | 0.712 | 0.799 | 0.744 | 0.916 | 0.924 | 1.03 | 0.422 | 0.78 | 0.206 | 0.208 | 0.213 | 0.192 | 0.186 | 0.658
COR-L 105 | 0.984 | 1.15 |  | 1.1 | 1.14 | 0.749 | 0.649 | 0.452 | 0.71 | 0.384 | 0.372 | 0.284 | 0.335 | 0.363 | 1.06 | 0.991 | 0.948 | 1.14 | 0.967 | 0.722
Calu-6 | 0.932 | 0.812 | 0.814 | 0.853 | 0.84 |  |  |  |  | 1.13 | 0.99 | 0.989 | 0.887 | 0.68 |  |  |  |  |  | 
ChaGo-K-1 | 0.927 | 0.896 | 0.922 | 0.857 | 0.843 | 0.546 | 0.611 | 0.539 | 0.367 |  |  |  |  |  | 0.277 | 0.261 | 0.372 | 0.257 | 0.254 | 0.33
EBC-1 | 0.111 | 0.0934 | 0.0874 | 0.0996 | 0.104 |  |  |  |  | 0.23 | 0.238 | 0.218 | 0.21 | 0.203 |  |  |  |  |  | 
EKVX | 0.808 | 0.83 | 0.595 | 0.866 | 0.867 | 0.731 | 0.708 | 0.671 | 0.588 | 0.193 | 0.19 | 0.201 | 0.18 | 0.168 | 0.335 | 0.401 |  |  | 0.376 | 
EMC-BAC-2 | 1.03 | 0.97 | 0.962 | 1.11 | 0.842 | 0.368 | 0.383 | 0.392 | 0.355 | 0.909 | 0.899 | 0.92 | 0.732 | 0.841 | 0.457 | 0.446 | 0.437 | 0.346 | 0.4 | 0.268
EPLC-272H | 0.849 | 0.662 |  | 0.566 | 0.631 | 0.285 | 0.355 | 0.296 | 0.272 | 1.01 | 0.905 | 1.07 | 0.618 | 0.944 | 0.316 | 0.367 | 0.342 | 0.269 | 0.374 | 0.248
H3255 | 0.863 | 0.9 | 0.837 | 0.84 | 0.767 | 0.587 | 0.675 | 0.613 | 0.518 | 0.222 | 0.229 | 0.258 | 0.251 | 0.186 | 0.594 | 0.462 | 0.541 | 0.539 | 0.572 | 0.573
HARA | 0.865 | 0.905 | 0.773 | 0.839 | 0.512 | 0.528 | 0.703 | 0.395 | 0.304 | 0.653 | 0.773 | 0.68 |  | 0.604 | 0.202 | 0.254 | 0.226 | 0.196 | 0.257 | 0.274
HCC-15 | 1.21 | 0.996 |  | 1.05 | 1.21 | 0.643 | 0.75 | 0.624 | 0.522 | 0.819 | 0.847 | 0.84 | 0.657 | 0.637 | 0.216 | 0.195 | 0.215 | 0.226 | 0.213 | 0.452
HCC-44 |  |  |  |  |  | 0.482 | 0.498 | 0.598 | 0.452 | 0.875 | 0.99 | 0.862 | 0.913 | 0.873 | 0.62 | 0.621 | 0.577 | 0.574 | 0.644 | 0.429
HCC-78 | 0.497 | 0.567 | 0.414 | 0.562 | 0.592 | 0.401 | 0.297 | 0.321 | 0.289 | 0.769 | 0.666 | 0.323 | 0.448 | 0.78 | 0.93 | 0.879 | 0.903 | 0.917 | 0.915 | 0.308
